Experimental data published in patent publication US20250136586A1, “Substituted 7-(Pyrimidin-4-yl)Quinolin-4(1H)-One Compounds as Cyclin Dependent Kinase Inhibitors” (BeiGene, Ltd., priority 2022, published 2025).

Key:
[1] = target: CDK6/Cyclin D3 (Homo sapiens (Human), UniProt Q00534); test: TR-FRET kinase inhibition assay, CDK6/Cyclin D3; assay type: biochemical; conditions: 1 mM ATP, 0.15 μM Rb (Ser780)-biotin substrate, read-out: CDK6D3 IC50
How it was run: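 Kinase preincubated 60 min at room temperature with 0–10 μM compound; reaction started with 1 mM ATP and 0.15 μM Rb (Ser780)-biotin, run 120 min at room temperature in HEPES pH 7.0, 50 mM MgCl2. pRb detected by TR-FRET (665/620 nm ratio); IC50 from four-parameter logistic fit.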

[2] = target: CDK4/Cyclin D1 (Homo sapiens (Human), UniProt P11802); test: TR-FRET kinase inhibition assay, CDK4/Cyclin D1; assay type: biochemical; conditions: 1 mM ATP, 0.15 μM Rb (Ser780)-biotin substrate, read-out: CDK4D1 IC50
How it was run: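 Kinase was preincubated with compound for 60 min at room temperature, then reacted with ATP and Rb (Ser780)-biotin substrate for 120 min. IC50 came from a four-parameter logistic fit.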

CDK4/Cyclin D1, sequence (P11802 whole entry): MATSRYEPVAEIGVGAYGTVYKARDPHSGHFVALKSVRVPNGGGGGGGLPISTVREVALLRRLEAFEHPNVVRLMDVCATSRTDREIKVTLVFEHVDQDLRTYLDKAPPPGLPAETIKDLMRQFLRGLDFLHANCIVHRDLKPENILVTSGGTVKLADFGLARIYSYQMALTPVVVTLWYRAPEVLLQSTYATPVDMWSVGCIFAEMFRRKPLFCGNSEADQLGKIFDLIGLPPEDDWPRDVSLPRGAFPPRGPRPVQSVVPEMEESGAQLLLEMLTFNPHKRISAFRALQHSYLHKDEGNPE
CDK4/Cyclin D1, sequence (P24385 whole entry partner): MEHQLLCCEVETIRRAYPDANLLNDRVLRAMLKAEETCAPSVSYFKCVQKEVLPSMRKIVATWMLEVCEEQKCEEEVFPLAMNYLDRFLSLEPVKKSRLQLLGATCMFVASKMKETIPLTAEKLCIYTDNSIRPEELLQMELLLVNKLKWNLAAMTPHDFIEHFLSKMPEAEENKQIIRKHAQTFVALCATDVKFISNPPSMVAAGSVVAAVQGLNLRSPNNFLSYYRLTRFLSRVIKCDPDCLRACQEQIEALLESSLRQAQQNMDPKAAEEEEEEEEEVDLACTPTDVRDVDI
CDK6/Cyclin D3, sequence (Q00534 whole entry): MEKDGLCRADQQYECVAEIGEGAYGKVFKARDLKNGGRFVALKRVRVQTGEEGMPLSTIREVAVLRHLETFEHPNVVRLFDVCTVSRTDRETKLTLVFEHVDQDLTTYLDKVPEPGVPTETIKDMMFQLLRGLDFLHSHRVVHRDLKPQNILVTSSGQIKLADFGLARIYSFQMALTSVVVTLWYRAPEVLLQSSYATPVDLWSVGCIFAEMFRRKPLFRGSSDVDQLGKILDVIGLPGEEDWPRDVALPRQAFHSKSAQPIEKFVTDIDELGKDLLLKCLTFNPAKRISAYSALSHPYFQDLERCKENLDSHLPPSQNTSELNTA
CDK6/Cyclin D3, sequence (P30281 whole entry partner): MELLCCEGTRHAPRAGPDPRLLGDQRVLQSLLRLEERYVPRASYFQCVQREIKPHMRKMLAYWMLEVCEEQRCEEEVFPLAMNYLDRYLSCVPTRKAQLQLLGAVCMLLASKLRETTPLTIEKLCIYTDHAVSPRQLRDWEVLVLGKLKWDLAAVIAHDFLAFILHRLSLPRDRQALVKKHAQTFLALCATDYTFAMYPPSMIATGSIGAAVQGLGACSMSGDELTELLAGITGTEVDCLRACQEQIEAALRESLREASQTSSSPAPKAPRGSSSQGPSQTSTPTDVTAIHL

IC50 [1] [nM] | IC50 [2] [nM] | Structure (SMILES)
540 | 12 | CC(C)n1c(CN2CCOC[C@H]2C)cc(=O)c2ccc(-c3nc(N[C@@H]4CCOC[C@H]4O)ncc3F)cc21 [Example 82, 7-(5-fluoro-2-(((3S,4R)-3-hydroxytetrahydro-2H-pyran-4-yl)amino)pyrimidin-4-yl)-1-isopropyl-2-(((R)-3-methylmorpholino)methyl)quinolin-4(1H)-one]
516 | 12 | Cc1c(CN2CCC(C)(O)CC2)n(C(C)C)c2cc(-c3nc(N[C@@H]4CCOC[C@H]4O)ncc3F)ccc2c1=O [Example 103, 7-(5-fluoro-2-(((3S,4R)-3-hydroxytetrahydro-2H-pyran-4-yl)amino)pyrimidin-4-yl)-2-((4-hydroxy-4-methylpiperidin-1-yl)methyl)-1-isopropyl-3-methylquinolin-4(1H)-one]
638 | 22 | CC(C)n1c(CN[C@H]2CCCOC2)cc(=O)c2ccc(-c3nc(N[C@@H]4CCOC[C@H]4O)ncc3F)cc21 [Example 60, 7-(5-fluoro-2-(((3S,4R)-3-hydroxytetrahydro-2H-pyran-4-yl)amino)pyrimidin-4-yl)-1-isopropyl-2-((((S)-tetrahydro-2H-pyran-3-yl)amino)methyl)quinolin-4(1H)-one]
574 | 14 | CNC(=O)c1cc(=O)c2ccc(-c3nc(N[C@@H]4CCOC[C@H]4O)ncc3F)cc2n1C(C)C [Example 7, 7-(5-fluoro-2-(((3S,4R)-3-hydroxytetrahydro-2H-pyran-4-yl)amino)pyrimidin-4-yl)-1-isopropyl-N-methyl-4-oxo-1,4-dihydroquinoline-2-carboxamide]
165 | 11 | CC(C)n1c(CN2CCOC[C@@H]2C)cc(=O)c2ccc(-c3nc(N[C@@H]4CCOC[C@H]4O)ncc3F)cc21 [Example 53, 7-(5-fluoro-2-(((3S,4R)-3-hydroxytetrahydro-2H-pyran-4-yl)amino)pyrimidin-4-yl)-1-isopropyl-2-(((S)-3-methylmorpholino)methyl)quinolin-4(1H)-one]
1300 | 25 | CC(C)n1c(CN2CC3CC2C3)cc(=O)c2ccc(-c3nc(N[C@@H]4CCOC[C@H]4O)ncc3F)cc21 [Example 43, 2-((2-azabicyclo[2.1.1]hexan-2-yl)methyl)-7-(5-fluoro-2-(((3S,4R)-3-hydroxytetrahydro-2H-pyran-4-yl)amino)pyrimidin-4-yl)-1-isopropylquinolin-4(1H)-one]
810 | 30 | CC(C)n1c(CN2CC(F)C2)cc(=O)c2ccc(-c3nc(N[C@@H]4CCOC[C@H]4O)ncc3F)cc21 [Example 74, 7-(5-fluoro-2-(((3S,4R)-3-hydroxytetrahydro-2H-pyran-4-yl)amino)pyrimidin-4-yl)-2-((3-fluoroazetidin-1-yl)methyl)-1-isopropylquinolin-4(1H)-one]
370 | 8.6 | CC(C)n1c(CN2CCC[C@@H](F)C2)cc(=O)c2ccc(-c3nc(N[C@@H]4CCOC[C@H]4O)ncc3F)cc21 [Example 98, 7-(5-fluoro-2-(((3S,4R)-3-hydroxytetrahydro-2H-pyran-4-yl)amino)pyrimidin-4-yl)-2-(((R)-3-fluoropiperidin-1-yl)methyl)-1-isopropylquinolin-4(1H)-one]
51.7 | 1.1 | Cc1c(CN2[C@@H](C)COC[C@@H]2C)n(C(C)C)c2cc(-c3nc(N[C@@H]4CCOC[C@H]4O)ncc3F)ccc2c1=O [Example 118, 2-(((3S,5S)-3,5-dimethylmorpholino)methyl)-7-(5-fluoro-2-(((3S,4R)-3-hydroxytetrahydro-2H-pyran-4-yl)amino)pyrimidin-4-yl)-1-isopropyl-3-methylquinolin-4(1H)-one]
148 | 5.7 | CC(C)n1c(CN2CC[C@H](F)C2)cc(=O)c2ccc(-c3nc(N[C@@H]4CCOC[C@H]4O)ncc3F)cc21 [Example 27, 7-(5-fluoro-2-(((3S,4R)-3-hydroxytetrahydro-2H-pyran-4-yl)amino)pyrimidin-4-yl)-2-(((S)-3-fluoropyrrolidin-1-yl)methyl)-1-isopropylquinolin-4(1H)-one]
392 | 14 | Cc1c(CN(C)C)n(C(C)C)c2cc(-c3nc(N[C@@H]4CCOC[C@H]4O)ncc3F)ccc2c1=O [Example 108, 2-((dimethylamino)methyl)-7-(5-fluoro-2-(((3S,4R)-3-hydroxytetrahydro-2H-pyran-4-yl)amino)pyrimidin-4-yl)-1-isopropyl-3-methylquinolin-4(1H)-one]
345 | 15 | CCc1cc(=O)c2ccc(-c3nc(N[C@@H]4CCOC[C@H]4O)ncc3F)cc2n1C(C)C [Example 55, 2-ethyl-7-(5-fluoro-2-(((3S,4R)-3-hydroxytetrahydro-2H-pyran-4-yl)amino)pyrimidin-4-yl)-1-isopropylquinolin-4(1H)-one]
375 | 12 | Cc1c(C2CCN2)n(C(C)C)c2cc(-c3nc(N[C@@H]4CCOC[C@H]4O)ncc3F)ccc2c1=O (stereo partly drawn) [Example 386, 2-(azetidin-2-yl)-7-(5-fluoro-2-(((3S,4R)-3-hydroxytetrahydro-2H-pyran-4-yl)amino)pyrimidin-4-yl)-1-isopropyl-3-methylquinolin-4(1H)-one]
360 | 15 | Cc1c(CN2CC[C@](C)(O)C2)n(C(C)C)c2cc(-c3nc(N[C@@H]4CCOC[C@H]4O)ncc3F)ccc2c1=O [Example 125, 7-(5-fluoro-2-(((3S,4R)-3-hydroxytetrahydro-2H-pyran-4-yl)amino)pyrimidin-4-yl)-2-(((S)-3-hydroxy-3-methylpyrrolidin-1-yl)methyl)-1-isopopyl-3-methylquinolin-4(1H)-one]
230 | 5 | Cc1c(CN2CCCC3(CCNC3=O)C2)n(C(C)C)c2cc(-c3nc(N[C@@H]4CCOC[C@H]4O)ncc3F)ccc2c1=O (stereo partly drawn) [Example 124, 7-((7-(5-fluoro-2-(((3S,4R)-3-hydroxytetrahydro-2H-pyran-4-yl)amino)pyrimidin-4-yl)-1-isopropyl-3-methyl-4-oxo-1,4-dihydroquinolin-2-yl)methyl)-2,7-diazaspiro[4.5]decan-1-one]
645 | 15 | CC(C)n1c(CN2CCC(C)(C)C2)cc(=O)c2ccc(-c3nc(N[C@@H]4CCOC[C@H]4O)ncc3F)cc21 [Example 42, 2-((3,3-dimethylpyrrolidin-1-yl)methyl)-7-(5-fluoro-2-(((3S,4R)-3-hydroxytetrahydro-2H-pyran-4-yl)amino)pyrimidin-4-yl)-1-isopropylquinolin-4(1H)-one]
928 | 32 | CC(C)n1c(CN2CCS(=O)(=O)CC2)cc(=O)c2ccc(-c3nc(N[C@@H]4CCOC[C@H]4O)ncc3F)cc21 [Example 83, 2-((1,1-dioxidothiomorpholino)methyl)-7-(5-fluoro-2-(((3S,4R)-3-hydroxytetrahydro-2H-pyran-4-yl)amino)pyrimidin-4-yl)-1-isopropylquinolin-4(1H)-one]
345 | 15 | Cc1cc(=O)c2ccc(-c3nc(N[C@@H]4CCOC[C@H]4O)ncc3F)cc2n1C(C)C [Example 6, 7-(5-fluoro-2-(((3S,4R)-3-hydroxytetrahydro-2H-pyran-4-yl)amino)pyrimidin-4-yl)-1-isopropyl-2-methylquinolin-4(1H)-one]
888 | 24 | CC(C)n1c(CN2CCC(C)(O)CC2)cc(=O)c2ccc(-c3nc(N[C@@H]4CCOC[C@H]4O)ncc3F)cc21 [Example 38, 7-(5-fluoro-2-(((3S,4R)-3-hydroxytetrahydro-2H-pyran-4-yl)amino)pyrimidin-4-yl)-2-((4-hydroxy-4-methylpiperidin-1-yl)methyl)-1-isopropylquinolin-4(1H)-one]
567 | 9.3 | Cc1c(CNC(C)C)n(C(C)C)c2cc(-c3nc(N[C@@H]4CCOC[C@H]4O)ncc3F)ccc2c1=O [Example 110, 7-(5-fluoro-2-(((3S,4R)-3-hydroxytetrahydro-2H-pyran-4-yl)amino)pyrimidin-4-yl)-1-isopropyl-2-((isopropylamino)methyl)-3-methylquinolin-4(1H)-one]
702 | 26 | CC(C)n1c(CN[C@H]2C[C@@H](F)C2)cc(=O)c2ccc(-c3nc(N[C@@H]4CCOC[C@H]4O)ncc3F)cc21 [Example 64, 7-(5-fluoro-2-(((3S,4R)-3-hydroxytetrahydro-2H-pyran-4-yl)amino)pyrimidin-4-yl)-2-((((1s,3S)-3-fluorocyclobutyl)amino)methyl)-1-isopropylquinolin-4(1H)-one]
1220 | 68 | Cc1cn(C(C)C)c2cc(-c3nc(N[C@@H]4CCOC[C@H]4O)ncc3F)ccc2c1=O [Example 2, 7-(5-fluoro-2-(((3S,4R)-3-hydroxytetrahydro-2H-pyran-4-yl)amino)pyrimidin-4-yl)-1-isopropyl-3-methylquinolin-4(1H)-one]

Structure (SMILES) | IC50 [1] [nM] | IC50 [2] [nM]
CC(C)n1c(CN2C3COCC2C3)cc(=O)c2ccc(-c3nc(N[C@@H]4CCOC[C@H]4O)ncc3F)cc21 [Example 68, 2-((3-oxa-6-azabicyclo[3.1.1]heptan-6-yl)methyl)-7-(5-fluoro-2-(((3S,4R)-3-hydroxytetrahydro-2H-pyran-4-yl)amino)pyrimidin-4-yl)-1-isopropylquinolin-4(1H)-one] | 1220 | 34
CC(C)n1c(CN2C3CCC2COC3)cc(=O)c2ccc(-c3nc(N[C@@H]4CCOC[C@H]4O)ncc3F)cc21 [Example 81, 2-((3-oxa-8-azabicyclo[3.2.1]octan-8-yl)methyl)-7-(5-fluoro-2-(((3S,4R)-3-hydroxytetrahydro-2H-pyran-4-yl)amino)pyrimidin-4-yl)-1-isopropylquinolin-4(1H)-one] | 483 | 23
